In ChEMBL document CHEMBL4482311, “Modulators of Prostate-Specific G-Protein Receptor (PSGR/OR51E2) and Methods of Using Same” (2018):
Active and inactive are the calls of the source. No cut-off for these calls is given here.

Experiments:
[1] = molecular target: T1, Olfactory receptor 51E2 (Homo sapiens) (UniProt Q9H255); assay: Agonist activity at PSGR/OR51E2 (unknown origin) expressed in human Hana3A cells co-transfected with CRE-Luc by luciferase reporter gene assay relative to control 1 mM propionic acid; format: functional, cell-based
T1 sequence (whole entry): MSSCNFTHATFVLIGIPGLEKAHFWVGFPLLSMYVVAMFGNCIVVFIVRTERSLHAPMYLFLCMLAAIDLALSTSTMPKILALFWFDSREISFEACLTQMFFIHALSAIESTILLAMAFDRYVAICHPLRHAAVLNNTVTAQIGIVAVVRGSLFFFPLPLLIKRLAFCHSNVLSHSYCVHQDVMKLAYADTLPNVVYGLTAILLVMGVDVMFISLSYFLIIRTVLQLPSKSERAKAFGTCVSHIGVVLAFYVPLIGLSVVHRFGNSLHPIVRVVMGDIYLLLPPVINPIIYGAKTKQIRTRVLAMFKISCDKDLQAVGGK

[2] = molecular target: T1, Olfactory receptor 51E2 (Homo sapiens); assay: Agonist activity at PSGR/OR51E2 in human LNCaP cells assessed as induction of change in extracellular metabolites level by measuring 2-deoxyglucose level at 100 nM incubated for 72 hrs by GC/MS analysis; format: cell-based
[3] = molecular target: T1, Olfactory receptor 51E2 (Homo sapiens); assay: Agonist activity at PSGR/OR51E2 in human LNCaP cells assessed as induction of neuroendocrine trans-differentiation related gene expression by measuring increase in OR51E2 mRNA expression incubated for 12 days by RT-PCR analysis; format: cell-based
[4] = molecular target: T1, Olfactory receptor 51E2 (Homo sapiens); assay: Agonist activity at PSGR/OR51E2 in human LNCaP cells assessed as induction of change in extracellular metabolites level by measuring 2-ketoleucine level at 100 nM incubated for 72 hrs by GC/MS analysis; format: cell-based
[5] = molecular target: T1, Olfactory receptor 51E2 (Homo sapiens); assay: Agonist activity at PSGR/OR51E2 in human LNCaP cells assessed as induction of change in intracellular metabolites level by measuring glucose-6-phosphate level at 100 nM incubated for 72 hrs by GC/MS analysis; format: cell-based
[6] = molecular target: T1, Olfactory receptor 51E2 (Homo sapiens); assay: Agonist activity at PSGR/OR51E2 in human LNCaP cells assessed as induction of change in extracellular metabolites level by measuring asparagine level at 100 nM incubated for 72 hrs by GC/MS analysis; format: cell-based
[7] = molecular target: T1, Olfactory receptor 51E2 (Homo sapiens); assay: Agonist activity at PSGR/OR51E2 in human LNCaP cells assessed as induction of change in extracellular metabolites level by measuring cysteine level at 100 nM incubated for 72 hrs by GC/MS analysis; format: cell-based
[8] = molecular target: T1, Olfactory receptor 51E2 (Homo sapiens); assay: Agonist activity at PSGR/OR51E2 in human LNCaP cells assessed as induction of change in extracellular metabolites level by measuring alpha-ketoglutaric acid level at 100 nM incubated for 72 hrs by GC/MS analysis; format: cell-based
[9] = molecular target: T1, Olfactory receptor 51E2 (Homo sapiens); assay: Agonist activity at PSGR/OR51E2 in human LNCaP cells assessed as induction of change in intracellular metabolites level by measuring threonine level at 100 nM incubated for 72 hrs by GC/MS analysis; format: cell-based
[10] = molecular target: T1, Olfactory receptor 51E2 (Homo sapiens); assay: Agonist activity at PSGR/OR51E2 in human LNCaP cells assessed as induction of change in intracellular metabolites level by measuring beta-alanine level at 100 nM incubated for 72 hrs by GC/MS analysis; format: cell-based
[11] = molecular target: T1, Olfactory receptor 51E2 (Homo sapiens); assay: Agonist activity at PSGR/OR51E2 in human LNCaP cells assessed as induction of change in intracellular metabolites level by measuring adenosine/inosine level at 100 nM incubated for 72 hrs by GC/MS analysis; format: cell-based
[12] = molecular target: T1, Olfactory receptor 51E2 (Homo sapiens); assay: Agonist activity at PSGR/OR51E2 in human LNCaP cells assessed as induction of neuroendocrine trans-differentiation related gene expression by measuring increase in NSE mRNA expression incubated for 12 days by RT-PCR analysis; format: cell-based
[13] = molecular target: T1, Olfactory receptor 51E2 (Homo sapiens); assay: Agonist activity at PSGR/OR51E2 in human LNCaP cells assessed as induction of change in extracellular metabolites level by measuring glutaric acid level at 100 nM incubated for 72 hrs by GC/MS analysis; format: cell-based
[14] = molecular target: T1, Olfactory receptor 51E2 (Homo sapiens); assay: Agonist activity at PSGR/OR51E2 in human LNCaP cells assessed as induction of change in intracellular metabolites level by measuring alanine level at 100 nM incubated for 72 hrs by GC/MS analysis; format: cell-based
[15] = molecular target: T1, Olfactory receptor 51E2 (Homo sapiens); assay: Agonist activity at PSGR/OR51E2 in human LNCaP cells assessed as induction of change in intracellular metabolites level by measuring malic acid level at 100 nM incubated for 72 hrs by GC/MS analysis; format: cell-based
[16] = molecular target: T1, Olfactory receptor 51E2 (Homo sapiens); assay: Agonist activity at PSGR/OR51E2 in human LNCaP cells assessed as induction of change in intracellular metabolites level by measuring urea level at 100 nM incubated for 72 hrs by GC/MS analysis; format: cell-based
[17] = molecular target: T1, Olfactory receptor 51E2 (Homo sapiens); assay: Agonist activity at PSGR/OR51E2 in human LNCaP cells assessed as induction of change in intracellular metabolites level by measuring guanine level at 100 nM incubated for 72 hrs by GC/MS analysis; format: cell-based
[18] = molecular target: T1, Olfactory receptor 51E2 (Homo sapiens); assay: Agonist activity at PSGR/OR51E2 in human LNCaP cells assessed as induction of change in extracellular metabolites level by measuring guanine level at 100 nM incubated for 72 hrs by GC/MS analysis; format: cell-based
[19] = molecular target: T1, Olfactory receptor 51E2 (Homo sapiens); assay: Agonist activity at PSGR/OR51E2 in human LNCaP cells assessed as induction of change in intracellular metabolites level by measuring pantothenic acid level at 100 nM incubated for 72 hrs by GC/MS analysis; format: cell-based
[20] = molecular target: T1, Olfactory receptor 51E2 (Homo sapiens); assay: Agonist activity at PSGR/OR51E2 in human LNCaP cells assessed as induction of change in extracellular metabolites level by measuring beta-alanine level at 100 nM incubated for 72 hrs by GC/MS analysis; format: cell-based
[21] = molecular target: T1, Olfactory receptor 51E2 (Homo sapiens); assay: Agonist activity at PSGR/OR51E2 in human LNCaP cells assessed as induction of change in intracellular metabolites level by measuring tyrosine level at 100 nM incubated for 72 hrs by GC/MS analysis; format: cell-based
[22] = molecular target: T1, Olfactory receptor 51E2 (Homo sapiens); assay: Agonist activity at PSGR/OR51E2 in human LNCaP cells assessed as induction of change in extracellular metabolites level by measuring n-acetylaspartic acid level at 100 nM incubated for 72 hrs by GC/MS analysis; format: cell-based
[23] = molecular target: T1, Olfactory receptor 51E2 (Homo sapiens); assay: Agonist activity at PSGR/OR51E2 in human LNCaP cells assessed as induction of neuroendocrine trans-differentiation related gene expression by measuring increase in AMACR mRNA expression incubated for 12 days by RT-PCR analysis; format: cell-based
[24] = molecular target: T1, Olfactory receptor 51E2 (Homo sapiens); assay: Agonist activity at PSGR/OR51E2 in human LNCaP cells assessed as induction of change in extracellular metabolites level by measuring urea level at 100 nM incubated for 72 hrs by GC/MS analysis; format: cell-based
[25] = molecular target: T1, Olfactory receptor 51E2 (Homo sapiens); assay: Agonist activity at PSGR/OR51E2 in human LNCaP cells assessed as induction of change in intracellular metabolites level by measuring fumaric acid level at 100 nM incubated for 72 hrs by GC/MS analysis; format: cell-based
[26] = molecular target: T1, Olfactory receptor 51E2 (Homo sapiens); assay: Agonist activity at PSGR/OR51E2 in human LNCaP cells assessed as induction of change in intracellular metabolites level by measuring fructose-6-phosphate level at 100 nM incubated for 72 hrs by GC/MS analysis; format: cell-based
[27] = molecular target: T1, Olfactory receptor 51E2 (Homo sapiens); assay: Agonist activity at PSGR/OR51E2 in human LNCaP cells assessed as induction of change in extracellular metabolites level by measuring hydroquinone level at 100 nM incubated for 72 hrs by GC/MS analysis; format: cell-based
[28] = molecular target: T1, Olfactory receptor 51E2 (Homo sapiens); assay: Agonist activity at PSGR/OR51E2 in human LNCaP cells assessed as induction of change in extracellular metabolites level by measuring benzoic-acid level at 100 nM incubated for 72 hrs by GC/MS analysis; format: cell-based
[29] = molecular target: T1, Olfactory receptor 51E2 (Homo sapiens); assay: Agonist activity at PSGR/OR51E2 in human LNCaP cells assessed as induction of change in intracellular metabolites level by measuring serine level at 100 nM incubated for 72 hrs by GC/MS analysis; format: cell-based
[30] = molecular target: T1, Olfactory receptor 51E2 (Homo sapiens); assay: Agonist activity at PSGR/OR51E2 in human LNCaP cells assessed as induction of change in extracellular metabolites level by measuring succinic acid level at 100 nM incubated for 72 hrs by GC/MS analysis; format: cell-based
[31] = molecular target: T1, Olfactory receptor 51E2 (Homo sapiens); assay: Agonist activity at PSGR/OR51E2 in human LNCaP cells assessed as induction of change in intracellular metabolites level by measuring tyramine level at 100 nM incubated for 72 hrs by GC/MS analysis; format: cell-based
[32] = molecular target: T1, Olfactory receptor 51E2 (Homo sapiens); assay: Agonist activity at PSGR/OR51E2 in human LNCaP cells assessed as induction of change in extracellular metabolites level by measuring glyceric acid level at 100 nM incubated for 72 hrs by GC/MS analysis; format: cell-based
[33] = molecular target: T1, Olfactory receptor 51E2 (Homo sapiens); assay: Agonist activity at PSGR/OR51E2 in human LNCaP cells assessed as induction of change in extracellular metabolites level by measuring hydroxyprolines level at 100 nM incubated for 72 hrs by GC/MS analysis; format: cell-based
[34] = molecular target: T1, Olfactory receptor 51E2 (Homo sapiens); assay: Agonist activity at PSGR/OR51E2 in human LNCaP cells assessed as induction of change in intracellular metabolites level by measuring lactic acid level at 100 nM incubated for 72 hrs by GC/MS analysis; format: cell-based
Olfactory receptor 51E2 = molecular target: T2, Olfactory receptor 51E2 (Homo sapiens, UniProt Q9H255); assay: Agonist activity at PSGR/OR51E2 (unknown origin) expressed in human Hana3A cells co-transfected with CRE-Luc by luciferase reporter gene assay; format: functional, cell-based
T2 sequence (Q9H255 whole entry): T1 sequence (whole entry)

`Oc1ccc(-c2[o+]c3cc(O)cc(O)c3cc2O)cc1` showed a Ratio [1] of 0.621.
With `C[C@]12CC[C@H]3[C@@H](CCC4=CC(=O)CC[C@@]43CO)[C@@H]1CCC2=O` the Activity [2] was “Active”, the Activity [3] was “Active” and the Activity [4] was “Active”. The Activity [5] was “Active”, the Activity [6] was “Active” and the Activity [7] was “Active”. The Activity [8] was “Active”, the Activity [9] was “Active” and the Activity [10] was “Active”. For the same molecule, the Activity [11] was “Active”, the Activity [12] was “Active” and the Activity [13] was “Active”. The Activity [14] was “Active”, the Activity [15] was “Active” and the Activity [16] was “Active”. For the same molecule, the Activity [17] was “Active”, the Activity [18] was “Active” and the Activity [19] was “Active”. The Activity [20] was “Active”, the Activity [21] was “Active” and the Activity [22] was “Active”. For the same molecule, the Activity [23] was “Active”, the Activity [24] was “Active” and the Activity [25] was “Active”. For the same molecule, the Activity [26] was “Active”, the Activity [27] was “Active” and the Activity [28] was “Active”. For the same molecule, the Activity [29] was “Active”, the Activity [30] was “Active” and the Activity [31] was “Active”. For the same molecule, the Activity [32] was “Active”, the Activity [33] was “Active” and the Activity [34] was “Active”.
`COc1cc(CCC(=O)CC(=O)CCc2ccc(O)c(OC)c2)ccc1O` was tested, and the Ratio [1] was 0.284.
In the case of `Nc1nc2[nH]c(O)nc2c(=O)[nH]1`, the EC50 (Olfactory receptor 51E2) is reported as 0.00044 nM.
In the case of `O=C1CN=CN1`, the Ratio [1] is reported as 0.678.
Molecule H-RPPGFSPFR-OH has a Ratio [1] of 0.762.
Work on H-RPPGFSPFR-OH [BRADYKININ] yielded an EC50 (Olfactory receptor 51E2) of 1.3 nM.
